The values that follow come from PMC2693498 (Retrovirology, 2009).

One data set concerns HIV-1 strain xxLAI. The data set can be described thus: microbe, parasite or virus in culture. Type of data set: cell-based. The conditions noted are these: Human immunodeficiency virus 1, MT2.
For data set [1] the following is noted: in vivo; cited from earlier work.
Data set [2] deals with T1, HIV-1 RT and ddNTP-terminated DNA primer/template (Human immunodeficiency virus type 1 group M subtype B, UniProt P04585).
T1 construct: Wild-type HIV-1 RT p66/p51 heterodimers; 6-His (N); made in house
The data set can be described thus: DEC formation assay (gel shift). Type of data set: binding. The text has this:
The dead-end complex (DEC) refers to a salt-stable complex formed by HIV-1 RT/ddNMP-terminated DNA primer-template bound to the next dNTP (or ddNTP) that is resistant to being competed apart with excess template. When DEC forms, HIV-1 RT and the DNA primer-template are "trapped" in a state where the forward reaction (polymerization), backward reaction (terminal ddNMP-excision), or enzyme-DNA dissociation cannot occur. We investigated the DEC formation using TFV-terminated DNA/RT/FTC-TP and FTC-MP-terminated DNA/RT/TFV-DP to test the hypothesis that the incoming NRTI might act as the next nucleotide to the chain-terminated primer and form a DEC, thus stabilizing the pre-existing chain-termination. […] For these studies, formation of DEC was determined by three kinetic constants including the dissociation constant (Kd), the maximum percentage of DNA primer-template forming a tight binding RT-DNA complex (Bmax), and the ratio of Bmax/Kd which reflects the efficiency of DEC formation. Furthermore, two sets of DNA primer/templates ([…] and D26/D50) were used to address whether the observation was sequence-dependent.
DNA primers D19, D25, and D26 were 5'-end labeled with T4 polynucleotide kinase (New England Biolabs, Ipswich, MA) and [γ-^32P]ATP as previously described. […] The annealed primer/templates were analyzed by non-denaturing polyacrylamide gel (4–20% TBE) electrophoresis to ensure that the proper annealing had taken place.
The ability of HIV-1 RT to form a stable complex with NRTI-terminated primer/template in the presence of dNTP, ddNTP or NNRTI was assessed as previously described with modification. Two sets of primer/templates were tested using D19/D36A (D19/D36C) and D25/D50 (D26/D50). Labeled primer/template was chain-terminated by incubating a mixture containing 50 mM Tris-HCl (pH 7.8), 60 mM KCl, 5 mM MgCl2, 5 mM DTT, 300 μg/mL bovine serum albumin, 4.2 (v/v) % glycerol, 5 nM [5'-^32P]-labeled primer/template, 0.5 μM of ddATP or TFV-DP (for D19/D36A or D25/D50) or 0.5 μM of ddCTP or FTC-TP (for D19/D36C or D26/D50), and 200 nM HIV-1 RT for 5 min at 37°C and then placed on ice. […] Free dNTP, ddNTP, or EFV was added into the mixture and the mixture was incubated for 15 min at 25°C. At the end of the incubation, the mixture was placed on ice and mixed with 100 mM KCl and 1 A260 unit/mL (for D19/D36A and D19/D36C) or 5 A260 unit/mL (for D25/D50 and D26/D50) poly(rA).poly(dT)12–18. […] The gel was exposed to a storage phosphor screen and DEC formation was quantified using GE Storm 820 PhosphorImager and ImageQuant TL software (GE Healthcare, Piscataway, NJ).
The DEC formation was analyzed by plotting the fraction of the primer/template detected as a function of dNTP, ddNTP, or EFV concentration. […] Data were fitted by nonlinear regression to simple ligand binding equation: y = (Bmax × [ligand])/(Kd + [ligand]) using SigmaPlot 9.0 (Systat Software, Inc., San Jose, CA), where the ligand is the free dNTP, ddNTP, or EFV concentration, and y corresponds to the % of primer/template in DEC complex. The kinetic constants Kd represents the apparent dissociation constant of a ligand and Bmax is the maximum % of DEC complex formation.
Background: Mobility shift assays separate free from complexed probe on a gel.

The conditions of data set [3]: human, in vivo; cited from earlier work.
The next data set deals with T2, HIV-1 RT (Human immunodeficiency virus type 1 group M subtype B, UniProt P04585).
T2 construct: Wild-type HIV-1 RT p66/p51 heterodimers; 6-His (N); made in house
The data set can be described thus: HIV-1 RT enzymatic (combination) inhibition assay, steady state, activated calf thymus DNA. Type of data set: biochemical.

Data set [4] concerns the target T1, HIV-1 RT and ddNTP-terminated DNA primer/template. Further details: method as in PMID 9153415, PMID 17517852. The conditions noted are these: TFV-terminated DNA+RT ref 51,55; read-out: Kd, reported values for DEC of TFV-terminated DNA+RT+dCTP; cited from earlier work.
Setting [5] is: TFV-terminated DNA 26/50-mer + HIV-1 RT, example experiment of Fig. 5.
[6] abbreviates: TFV-terminated DNA 26/50-mer + HIV-1 RT, example experiment of Fig. 5, read-out: Kd (curve fit of Fig. 5).
The mark [7] stands for this setting: ligand added to TFV-terminated DNA D20/D36 + HIV-1 RT.
The mark [8] stands for this setting: ligand added to TFV-terminated DNA D20/D36 + HIV-1 RT, read-out: Kd.
[9] abbreviates: ligand added to TFV-terminated DNA D26/D50 + HIV-1 RT.
[10] abbreviates: ligand added to ddAMP-terminated DNA D20/D36 + HIV-1 RT.
Where [11] appears, read: ligand added to ddAMP-terminated DNA D20/D36 + HIV-1 RT, read-out: Kd.
The mark [12] stands for this setting: ligand added to ddAMP-terminated DNA D26/D50 + HIV-1 RT.
Setting [13] is: [α-32P]-dATP incorporation as marker.
Setting [14] is: [α-32P]-dCTP incorporation as marker.
The mark [15] stands for this setting: ligand added to ddCMP-terminated DNA D20/D36 + HIV-1 RT.
Where [16] appears, read: ligand added to ddCMP-terminated DNA D27/D50 + HIV-1 RT.

Where “and” joins values, the source holds several entries; their conditions need not be identical. Equal entries are not always repeated. Where two headings read alike, the source gives them in different places.

The term EC50 denotes the concentration giving half of the maximal effect. Read a low EC50 as a more potent agent. By Kd is commonly meant the concentration at which binding is half-saturated. As a reminder, the IC50 is the concentration at which inhibition is half-maximal.

Protocol for HIV-1 strain xxLAI: The infected cells were incubated for 5 days at 37°C in 5% CO2. Antiviral activity was measured by determining the HIV-1 cytopathic effect by using the vital dye XTT (2,3-bis(2-methoxy-4-nitro-5-sulphophenyl)-2H-tetrazolium-5-carboxanilide) based colorimetric assay [61].
For the median-effect analysis, the compounds were combined at a 1:1 ratio based on their EC50. Six to eight concentrations of each single drug, two-drug combinations, and three-drug combinations were assayed in at least three independent experiments with quadruplicate wells for each experiment. The triple drug combination of TFV+FTC+EFV was studied by the median-effect analysis only. […] For the MacSynergy analysis, combinations of TFV+FTC, TFV+EFV, and FTC+EFV were tested in a checkerboard fashion in 96-well plates with the starting concentration for each compound fixed at three-fold to four-fold above the EC50 value. For the isobologram analysis, combinations of TFV+FTC, TFV+EFV, and FTC+EFV were tested in a checkerboard fashion with the starting concentration for each compound fixed at three-fold to four-fold above the EC50 value.
The degrees of synergy and antagonism were determined using CalcuSyn software (version 2.0, Biosoft, Cambridge, UK) which is based on median-effect principle by Chou and Talalay [62]. […] The IC50 value is calculated from the y-intercept (-m * log IC50), where m is the slope of the curve. […]
The MacSynergy II program (version 1.0, Ann Arbor, MI) calculates a theoretical additive value for each drug combination based on the values generated by the drugs alone using the Bliss Independence model [42]. […] A synergy volume is calculated by adding all of the positive values for each drug combination. […]
In our cell culture study, the score of synergy/antagonism was calculated from a set of 5 replicate parallel measurements and more than 3 sets of such experiments were conducted to test the reproducibility of the results. […]
Fractional inhibitory concentrations are calculated by dividing the EC50 of drug 1 with a fixed overlay of drug 2 by the EC50 of drug 1 alone (the x-coordinate).

Compound `O=C1Nc2ccc(Cl)cc2[C@@](C#CC2CC2)(C(F)(F)F)O1` [EFV, efavirenz] displayed an EC50 in the data set with HIV-1 strain xxLAI of 0.0056 µM. The “steady-state plasma EFV concentration” value in data set [1] is 5 µM.
In the data set with HIV-1 strain xxLAI, `Nc1nc(=O)n([C@@H]2CS[C@H](CO)O2)cc1F` [FTC, emtricitabine] displayed an EC50 of 1.3 µM.
For the compound `Nc1nc(=O)n([C@@H]2CS[C@H](COP(=O)(O)OP(=O)(O)OP(=O)(O)O)O2)cc1F` [FTC-TP, FTC triphosphate], the “Bmax (curve fit of Fig. 5)” value in data set [2] (setting [5]) came to 50.4 ± 1.1%. Further, the Kd in data set [2] (setting [6]) was 52.6 ± 3.4 µM; in data set [2] (setting [8]) it was 250 ± 11 µM; in data set [2] (setting [11]) it was 171 ± 28 µM. Also, in data set [2] (TFV-terminated DNA+RT, two sequence contexts: equal to dCTP in one, this fold in the other), the “fold more efficient DEC formation than dCTP” value was 3.9 fold and 4 fold. For the same compound, the “fold less efficient DEC formation than with dCTP” value in data set [2] (ddAMP-terminated DNA+RT) turned out to be 10 fold. Further, the Bmax in data set [2] (setting [7]) is listed as 17.7 ± 3.9%; in data set [2] (setting [9]), 50.0 ± 5.0%; in data set [2] (setting [10]) it was 28.1 ± 4.7%; in data set [2] (setting [12]), 60.2 ± 7.2%. For the same compound, the “concentration in patients' peripheral blood mononuclear cells (PBMC)” value in data set [3] was 5000 nM. The IC50 at HIV-1 RT (setting [13]) came out at 5 ± 3.2 µM; at HIV-1 RT (setting [14]) it was 2.4 ± 0.8 µM.
On to `C[C@H](Cn1cnc2c(N)ncnc21)OCP(=O)(O)O` [TFV, tenofovir], for which the EC50 in the data set on HIV-1 strain xxLAI worked out at 13 µM.
As to `C[C@@H](Cn1cnc2c(N)ncnc21)OCP(=O)(O)OP(=O)(O)OP(=O)(O)O` [TFV-DP, TFV diphosphate], the values for the Bmax in data set [2] (setting [15]) and in data set [2] (setting [16]) were 15.3 ± 2.7% and 55 ± 2%, respectively. The “concentration in patients' peripheral blood mononuclear cells (PBMC)” value in data set [3] is 500 nM. For the same compound, the IC50 on HIV-1 RT (setting [13]) is 0.53 ± 0.08 µM; on HIV-1 RT (setting [14]), 0.82 ± 0.23 µM.
Consider `Nc1ncnc2c1ncn2[C@H]1C[C@H](O)[C@@H](COP(=O)(O)OP(=O)(O)OP(=O)(O)O)O1` [dATP], for which the “fold more efficient DEC formation than TFV-DP” value in data set [2] (ddCMP-terminated DNAs) was 24- to 65 fold. Moreover, the Bmax in data set [2] (ligand added to FTC-MP-terminated DNA D27/D50 + HIV-1 RT, ND = No DEC formation detected at 2 mM) came to 45 ± 14%; in data set [2] (setting [15]), 38.0 ± 4.4%; in data set [2] (setting [16]), 60 ± 3%. For the same compound, the Kd in data set [2] (ligand added to FTC-MP-terminated DNA D27/D50 + HIV-1 RT, ND = No DEC formation detected at 2 mM, read-out: Kd) was 862 ± 229 µM.
In the case of `Nc1ccn([C@H]2C[C@H](O)[C@@H](COP(=O)(O)OP(=O)(O)OP(=O)(O)O)O2)c(=O)n1` [dCTP], the Kd in data set [4] is 1 to 5 µM; in data set [2] (setting [6]), 185 ± 28 µM; in data set [2] (setting [8]) it was 232 ± 12 µM; in data set [2] (setting [11]), 21.5 ± 9.8 µM. In data set [2] (setting [5]), the “Bmax (curve fit of Fig. 5)” value was found to be 49.2 ± 2.7%. In addition, the Bmax in data set [2] (setting [7]) is 18.5 ± 6.7%; in data set [2] (setting [9]) it was 50.0 ± 5.5%; in data set [2] (setting [10]), 34.2 ± 4.6%; in data set [2] (setting [12]), 55.8 ± 3.4%.
